Data on two molecules can be found in patent publication US20100093661A1, “COMPOSITION COMPRISING CHITOSAN AND AN ACIDIC DRUG FOR ORAL CONTROLLED RELEASE” (The Jordanian Pharmaceutical Manufacturing Co., priority 2007, published 2010).

Molecules are shown by their SMILES.

The nature of one data set: Water solubility. Type of data set: physicochemical.
The conditions of data set [1]: single 200-mg oral dose, fasting subjects; cited from earlier work.

As for `CC(=O)O.CC(C)Cc1ccc(C(C)C(=O)O)cc1` (centres unmarked) [Ibuprofen ethanoate], in the data set “Water solubility”, the water solubility result was “water insoluble”.
In the case of `CC(C)Cc1ccc(C(C)C(=O)O)cc1` (centres unmarked) [Ibuprofen], the “time of peak plasma levels after administration” value in data set [1] is given as “about 1 hr”.
